Assay results taken from patent US20150368230A1, “RADIOLABELED QUINAZOLINE DERIVATIVES” (priority 2013, published 2015).

What was measured:
[1] = Metabolite analysis in plasma after injection of tracer; assay type: in vivo, Balb/C mice; details: for Parent (%): plasma
Description: The mice were sacrificed at 15 (n=4) and 45 (n=4) min post-injection. At these time points, about 1.5 mL of blood was collected via a heart puncture. […] The cartridge was washed with 5 mL of H2O to collect polar radioactive metabolites. Thereafter, the tC2 Sep-Pak cartridge was eluted with 2 mL of MeOH and 1 mL of H2O to collect the mixture of apolar metabolites. […] HPLC was performed on a Dionex Ultimate 3000 system, equipped with a 1 mL loop. As a stationary phase a Phenomenex Gemini C18, 250×10 mm, 5 μm was used.

[2] = test system: A549 xenograft; assay: Biodistribution studies, A549 tumor bearing mice; assay type: in vivo, nude mice (nu/nu); details: 5 minutes p.i.
Description: (§1) The mice were sacrificed and dissected at 5, 30, 60 and 120 minutes post-injection. Blood, urine, skin, left tumor, right tumor, muscle, heart, lung, liver, kidney and brain were collected, weighed and counted for radioactivity in a Wallac Compugamma 1210 counter (n=3 for each time point). Biodistribution data are expressed as percentage of injected dose per gram (% ID/g) tissue for each organ (FIG. 2).

[3] = test system: H1975 xenograft; assay: Biodistribution studies, H1975 tumor bearing mice; assay type: in vivo, nude mice (nu/nu); details: 5 minutes p.i.
Description: as §1

[4] = test system: HCC827 xenograft; assay: Biodistribution studies, HCC827 tumor bearing mice; assay type: in vivo, nude mice (nu/nu); details: 5 minutes p.i.
Description: as §1

[5] = test system: A549, H1975 or HCC827 xenografts; assay: Biodistribution studies, statements for all investigated tumor types; assay type: in vivo, nude mice (nu/nu)
Description: as §1

[6] = test system: A549 xenograft; assay: Dynamic PET imaging, A549 xenograft; assay type: in vivo, nude mice; details: A549 (insensitive), no blocking
Description: (§2) Dynamic PET imaging was performed on three cancer xenograft (A549, H1975 and HCC827) lines in nude mice. Each mouse (n=3) carried one tumor of the same cancer xenograft line, which were located on the left or right flank. Imaging was performed for a duration of 120 min using a double-LSO/LYSO layer high-resolution research tomograph (HRRT; CTI/Siemens, Knoxville, Tenn., USA). The mice were anesthetized with 4% and 2% isoflurane in 1 L·min^−1 oxygen for induction and maintenance, respectively. First, for attenuation and scatter correction, a transmission scan was acquired using a 740-MBq two-dimensional (2D) fan-collimated ^137Cs (662 keV) moving point source. […] Positron emission scans were acquired in list mode and rebinned into the following frame sequence: 10×60 s, 4×300 s, and 9×600 s. After 120 min, [^18F]FDG was administered (I.V. ocular plexus) to the mice followed by scanning for another 60 min. Following corrections for decay, dead time, scatter and randoms, scans were reconstructed using an iterative 3D ordered-subsets weighted least-squares analysis (3D-OSWLS). Point source resolution varied across the field of view from approximately 2.3 to 3.2-mm full width at half maximum in the transaxial direction and from 2.5 to 3.4 mm in the axial direction. Post-filtering was not performed after reconstruction.

[7] = test system: H1975 xenograft; assay: Dynamic PET imaging, H1975 xenograft; assay type: in vivo, nude mice; details: H1975 (insensitive), no blocking
Description: as §2

[8] = PET imaging with cold afatinib added to the tracer injection; assay type: in vivo, mice; details: cold dose of 100 ng afatinib added
Description: Showing that imaging of the tumor should be done at high specific activity.

[9] = test system: P-gp; assay: PET imaging with P-gp blocking by tariquidar

CN(C)C/C=C/C(=O)Nc1cc2c(Nc3ccc([18F])c(Cl)c3)ncnc2cc1O[C@H]1CCOC1 [[^18F]afatinib, [^18F](S,E)-N-(4-((3-chloro-4-fluorophenyl)amino)-7-((tetrahydrofuran-3-yl)oxy)quinazolin-6-yl)-4-(dimethylamino)but-2-enamide]
in vivo stability of the tracer ([1]; metabolic profile of table 1): excellent in vivo stability | Parent (%) ([1]; 15 min p.i.): 87.5 ± 0.8% | Parent (%) ([1]; 45 min p.i.): 83.3 ± 1.3% | blood level of the tracer [2]: 2.17 % ID/g | blood level of the tracer [3]: 1.59 % ID/g | blood level of the tracer [4]: 1.56 % ID/g | uptake in the metabolic organs (kidney and liver) ([5]; mouse, in vivo): rapid and high uptake | activity remained in the tumor ([5]; tumors, 120 minutes p.i.): around 1 % ID/g | uptake in tumor compared to background [6]: hardly an increase of uptake in the tumors compared to the background | uptake in tumor compared to background [7]: hardly an increase of uptake in the tumors compared to the background | tumor uptake with cold afatinib co-injected [8]: reduced to background levels | brain uptake ([9]; P-gp active (no block)): washed out from the brain | brain uptake ([9]; P-gp blocked with tariquidar): remains in the brain | P-gp substrate status ([9]; absolute tumor uptake increased when P-gp blocked): substrates | washout after P-gp blocking ([9]; tumor, tariquidar block): hardly shows any washout
